These compounds were tested against T1, Farnesyltransferase (Saccharomyces cerevisiae S288c, UniProt P22007+P29703) (assay: Inhibition of yeast Farnesyl transferase).
T1 sequence (P29703 whole entry): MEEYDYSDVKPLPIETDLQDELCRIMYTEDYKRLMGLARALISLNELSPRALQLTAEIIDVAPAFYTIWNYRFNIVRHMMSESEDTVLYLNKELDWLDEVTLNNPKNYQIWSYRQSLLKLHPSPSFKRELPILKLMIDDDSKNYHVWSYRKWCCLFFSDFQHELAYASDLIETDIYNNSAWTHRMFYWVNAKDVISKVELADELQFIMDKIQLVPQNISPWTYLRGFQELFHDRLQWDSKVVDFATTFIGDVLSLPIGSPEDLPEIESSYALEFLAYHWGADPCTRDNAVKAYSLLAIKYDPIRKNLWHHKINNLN
T1 sequence (P22007 whole entry): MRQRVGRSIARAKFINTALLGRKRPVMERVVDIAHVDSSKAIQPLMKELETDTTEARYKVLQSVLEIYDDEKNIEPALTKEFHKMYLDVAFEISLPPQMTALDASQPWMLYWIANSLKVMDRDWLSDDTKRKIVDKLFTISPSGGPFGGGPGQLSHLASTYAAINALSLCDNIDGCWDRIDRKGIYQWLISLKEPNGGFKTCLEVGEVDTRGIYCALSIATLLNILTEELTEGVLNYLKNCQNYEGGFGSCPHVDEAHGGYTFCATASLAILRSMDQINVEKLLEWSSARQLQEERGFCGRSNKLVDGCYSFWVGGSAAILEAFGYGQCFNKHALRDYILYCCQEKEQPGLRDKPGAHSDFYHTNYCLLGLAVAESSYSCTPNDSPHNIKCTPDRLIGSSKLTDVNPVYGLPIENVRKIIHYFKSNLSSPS
Assay type: protein-complex assay

Compound | IC50 [µM] | Ki [µM] | Kd [µM]
C/C(=C\COP(=O)(O)OP(=O)(O)O)CC/C=C(\C)COC(=O)c1cccc(C(=O)c2ccccc2)c1 | 2.3 | 0.38 | 
C/C(=C\COP(=O)(O)OP(=O)(O)O)COC(=O)c1cccc(C(=O)c2ccccc2)c1 | 2 | 0.96 | 
C/C(=C\COP(=O)(O)OP(=O)(O)O)CNC(=O)c1cccc(C(=O)c2ccccc2)c1 | 37 | 6 | 

Next, values leading:

IC50 [µM] | Ki [µM] | Kd [µM] | Compound
3.7 | 0.7 |  | C/C(=C\COP(=O)(O)OP(=O)(O)O)CC/C=C(\C)CNC(=O)c1cccc(C(=O)c2ccccc2)c1
10 |  |  | C/C(=C\COP(=O)(O)OP(=O)(O)O)CC/C=C(\C)CN1C(=O)c2ccccc2C1=O
 |  | 0.075 | CC(C)=CCC/C(C)=C/CC/C(C)=C/CO[P@@](=O)(O)OP(=O)(O)O [FARNESYL DIPHOSPHATE]

Source: ChEMBL document CHEMBL1130507, “Synthesis and evaluation of benzophenone-based photoaffinity labeling analogs of prenyl pyrophosphates containing stable amide linkages” (Bioorg Med Chem Lett, 1997)
